From patent publication US9127024B2 (Intrexon Corporation, priority 2013, dated 2015)
Read-outs that look alike come from different tables or passages of the source. One block for each molecule: values may come before it.

How the values were obtained:
[1] = target: RheoSwitch® (CHO-K1_RS-1 cells, firefly Luciferase reporter) (Choristoneura fumiferana, UniProt O77240); assay: in vitro gene switch assay (fLUC Luciferase expression, potency screen); type: cell-based
Text: Gene switch assays are disclosed, e.g., in U.S. Pat. Nos. 8,076,517; 7,456,315; 7,304,161; and 6,258,603.
CHO-K1 cells were stably transfected with a plasmid (RS-1, FIG. 1) coding for firefly Luciferase (fLUC) under the control of the RheoSwitch® resulting in the stable cell line CHO-K1_RS-1. A master cell bank was created containing approximately 100 vials at 5×10^6 cells per vial. One vial of CHO-K1_RS-1 was thawed and cultured for two weeks prior to each in vitro potency screening.
Twenty-four (24) hours prior to treatment with the control and test compounds the CHO-K1_RS-1 cells were seeded into white-opaque 384-well cell culture plates at 3,600 cells per well in 30 μl of culture medium. The cells were incubated in a humidified CO2 incubator at 37° C. until compound treatment.
Compounds were prepared at 25 mM in 100% dry DMSO and stored at room temperature in sealed 1 ml tubes prior to subsequent dilution and assay. On the day of cell treatment the tubes containing the control and test compounds were sorted and the ligands transferred to a 96-well polypropylene plate for subsequent dilution. The compounds were diluted in 100% dry DMSO in an 8-point, 10-fold dilution series ranging from 25 mM to 2.5 nM using the Biomek FX automated liquid handler.
The diluted compounds were then transferred to each well of 384-well polypropylene plate in quadruplicate resulting in a single 384-well plate with four replicates of each compound dilution in a different quadrant of the plate. Each well on the 384-well plate received 20 μl of diluted compound. The 384-well plates containing diluted compound and the plates containing cells in culture were loaded onto the Biomek FX and 30 nl of compound was delivered to each well containing cells using a 384-pin V&P Scientific Pin Tool. The resulting 1000-fold dilution (30 nl to 30 μl) generated a final dosing range of 25 μM to 2.5 pM in 0.1% DMSO. Two replicate plates were produced to supply a dedicated plate for the Luciferase expression assay and the APH cell viability assay.
The cells were incubated with the compound for 24 hours in a humidified CO2 incubator at 37° C. Following incubation, the cells were assayed for Luciferase expression (fLUC assay) using the Steady Glo assay from Promega. Cells were equilibrated to room temperature for 15 minutes prior to reagent addition. Thirty micro liters (30 μl) of assay reagent was added to each well of the 384-well plate using the Biomek FX. The reagent was incubated with the cells for 10-120 minutes prior to reading on a Molecular Devices Spectramax L luminometer. The assay reagents were prepared as per the manufacturer's instructions.
The Luciferase expression data was normalized to the baseline signal from cells treated with DMSO alone. The ratio of signal from treated cells to vehicle-treated cells was plotted and non-linear regress was performed using Graph Pad Prism software. EC50, (log)EC50 and Hill slope data was generated. Reporter gene expression, e.g., luciferase expression, serves as a proxy for the expression of a gene of interest. See, e.g., US 2009/0123441 and WO 2011/119773.

[2] = Pharmacokinetic (PK) study, oral gavage, plasma LC-MS/MS; conditions: for Clearance: oral clearance
[3] = read-out: fLUC assay EC50, 24 hours with compound, 25 μM to 2.5 pM, figure in parentheses after a value not defined
[4] = female, Sprague Dawley, rat, po, 10 mg/kg
[5] = female Sprague Dawley rats, oral gavage 10 mg/kg, Capryol 90/Triacetin (1:1, v/v)
[6] = female, Sprague Dawley, rat, po, 10 mg/kg, AUC0−t, female Sprague Dawley rats, oral gavage 10 mg/kg, Capryol 90/Triacetin (1:1, v/v)
[7] = female, Sprague Dawley, rat, po, 10 mg/kg, Cmax, female Sprague Dawley rats, oral gavage 10 mg/kg, Capryol 90/Triacetin (1:1, v/v)
[8] = female, Sprague Dawley, rat, po, 10 mg/kg, Tmax, female Sprague Dawley rats, oral gavage 10 mg/kg, Capryol 90/Triacetin (1:1, v/v)
[9] = female, Sprague Dawley, rat, po, 10 mg/kg, half-life, female Sprague Dawley rats, oral gavage 10 mg/kg, Capryol 90/Triacetin (1:1, v/v)
[10] = female Sprague Dawley rats, oral gavage 10 mg/kg, Capryol 90/Triacetin (1:1, v/v), listed as Cpd. No. 13 (Lot # 1), 10 mg/kg
[11] = female Sprague Dawley rats, oral gavage 10 mg/kg, Capryol 90/Triacetin (1:1, v/v), listed as Cpd. No. 13 (Lot # 2), 10 mg/kg
[12] = read-out: fLUC assay EC50 Run 1, 24 hours with compound, Run 1
[13] = read-out: fLUC assay EC50 Run 2, 24 hours with compound, Run 2

RheoSwitch® (CHO-K1_RS-1 cells, firefly Luciferase reporter), sequence (O77240 1-513): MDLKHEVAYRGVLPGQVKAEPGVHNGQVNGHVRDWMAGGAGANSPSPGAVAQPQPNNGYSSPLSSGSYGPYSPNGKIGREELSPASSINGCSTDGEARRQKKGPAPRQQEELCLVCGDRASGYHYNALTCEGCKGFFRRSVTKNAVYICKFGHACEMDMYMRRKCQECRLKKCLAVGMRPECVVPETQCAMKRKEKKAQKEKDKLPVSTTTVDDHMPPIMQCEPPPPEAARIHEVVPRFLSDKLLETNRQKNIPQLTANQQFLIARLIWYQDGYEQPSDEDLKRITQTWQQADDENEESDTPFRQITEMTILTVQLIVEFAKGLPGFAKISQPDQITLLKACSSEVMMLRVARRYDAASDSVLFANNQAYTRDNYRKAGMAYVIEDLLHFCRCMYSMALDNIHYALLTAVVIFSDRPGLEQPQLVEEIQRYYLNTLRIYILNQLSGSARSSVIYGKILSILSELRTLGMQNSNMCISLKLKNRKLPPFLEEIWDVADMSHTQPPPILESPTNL

Structure (SMILES): Cc1cc(C)cc(C(=O)N(NC(=O)c2ccc3c(c2C)OCCOB3O)C(C)(C)C)c1
EC50 [1, 3]: 259 nM | AUC(0-t) [2, 4]: 13200 ng·h/mL | Cmax [2, 4]: 1280 ng/mL | Tmax [2, 4]: 2.3 h | half-life [2, 4]: 660 min | Clearance [2, 5]: 611 mL/h/kg

AUC(0-t) [2, 6]: 773 ng·h/mL | Cmax [2, 7]: 255 ng/mL | Tmax [2, 8]: 4 h | half-life [2, 9]: 126 min | Clearance [2, 5]: 12786 mL/h/kg
Structure (SMILES): CCC[C@@H](N(NC(=O)c1cccc(OC)c1C)C(=O)c1cc(C)cc(C)c1)C(C)(C)C [Cpd. A, reference compound]

AUC(0-t) [2, 6]: 888 ng·h/mL | Cmax [2, 7]: 116 ng/mL | Tmax [2, 8]: 3.7 h | half-life [2, 9]: 324 min | Clearance [2, 5]: 11030 mL/h/kg
Structure (SMILES): CCC[C@@H](N(NC(=O)c1cccc(OC)c1CC)C(=O)c1cc(C)cc(C)c1)C(C)(C)C [Cpd. B, reference compound]

Structure (SMILES): Cc1cc(C)cc(C(=O)N(NC(=O)c2cccc(B(O)O)c2F)C(C)(C)C)c1 [Cpd. No. 5]
EC50 [1, 3]: 300 nM | AUC(0-t) [2, 6]: 18800 ng·h/mL | Cmax [2, 7]: 1890 ng/mL | Tmax [2, 8]: 4 h | half-life [2, 9]: 240 min | Clearance [2, 5]: 533 mL/h/kg

Structure (SMILES): CCC[C@@H](N(NC(=O)c1ccc(B(O)O)cc1F)C(=O)c1cc(C)cc(C)c1)C(C)(C)C [Cpd. No. 13, (R)-(4-(2-(3,5-dimethylbenzoyl)-2-(2,2-dimethylhexan-3-yl)hydrazinecarbonyl)-3-fluorophenyl)boronic acid]
EC50 [1, 3]: 64 nM | AUC0−t [2, 10]: 10579 ng·h/mL | Cmax [2, 10]: 1415 ng/mL | AUC0−t [2, 11]: 60407 ng·h/mL | Cmax [2, 11]: 7060 ng/mL | Tmax [2, 11]: 3.3 h | half-life [2, 11]: 258 min | Tmax [2, 8]: 2.7 h | half-life [2, 9]: 192 min | Clearance [2, 10]: 938 mL/h/kg | Clearance [2, 11]: 169 mL/h/kg

Structure (SMILES): CCC[C@@H](N(NC(=O)c1ccc(B(O)O)c(F)c1)C(=O)c1cc(C)cc(C)c1)C(C)(C)C [Cpd. No. 22, (R)-(4-(2-(3,5-dimethylbenzoyl)-2-(2,2-dimethylhexan-3-yl)hydrazinecarbonyl)-2-fluorophenyl)boronic acid]
EC50 [1, 3]: 105 nM | AUC(0-t) [2, 6]: 25000 ng·h/mL | Cmax [2, 7]: 2730 ng/mL | Tmax [2, 8]: 3 h | half-life [2, 9]: 336 min | Clearance [2, 5]: 407 mL/h/kg

Structure (SMILES): Cc1cc(C)cc(C(=O)N(NC(=O)c2ccc3c(c2C)OCCNB3O)C(C)(C)C)c1 [Cpd. No. 91, N′-(tert-butyl)-N′-(3,5-dimethylbenzoyl)-1-hydroxy-6-methyl-1,2,3,4-tetrahydrobenzo[f][1,4,5]oxazaborepine-7-carbohydrazide]
EC50 [1, 12]: 132 nM | EC50 [1, 13]: 86.9 nM

Structure (SMILES): CC[C@@H](N(NC(=O)c1ccc2c(c1C)OCCNB2O)C(=O)c1cc(C)cc(C)c1)C(C)(C)C [Cpd. No. 92, (R)-N′-(3,5-dimethylbenzoyl)-N′-(2,2-dimethylpentan-3-yl)-1-hydroxy-6-methyl-1,2,3,4-tetrahydrobenzo[f][1,4,5]oxazaborepine-7-carbohydrazide]
EC50 [1, 12]: 187 nM | EC50 [1, 13]: 116 nM

Structure (SMILES): CCC[C@@H](N(NC(=O)c1ccc([B-](F)(F)F)cc1F)C(=O)c1cc(C)cc(C)c1)C(C)(C)C [Cpd. No. 93, potassium (R)-(4-(2-(3,5-dimethylbenzoyl)-2-(2,2-dimethylhexan-3-yl)hydrazine-1-carbonyl)-3-fluorophenyl)trifluoroborate]
EC50 [1, 12]: 66.8 nM | EC50 [1, 13]: 122 nM

Structure (SMILES): COCc1ccc(C(=O)NN(C(=O)c2cc(C)cc(C)c2)C(C)(C)C)c(F)c1B1OC(C)(C)C(C)(C)O1 [Cpd. No. 94, N′-(tert-butyl)-N′-(3,5-dimethylbenzoyl)-2-fluoro-4-(methoxymethyl)-3-(4,4,5,5-tetramethyl-1,3,2-dioxaborolan-2-yl)benzohydrazide]
EC50 [1, 12]: 778 nM | EC50 [1, 13]: 1650 nM

Structure (SMILES): CCC[C@@H](N(NC(=O)c1ccc(B(O)O)cc1C(C)C)C(=O)c1cc(C)cc(C)c1)C(C)(C)C [compound 10]
EC50 [1, 3]: 1240 nM

Structure (SMILES): Cc1cc(C)cc(C(=O)N(NC(=O)c2ccc(B(O)O)cc2C(C)C)C(C)(C)C)c1 [compound 11]
EC50 [1, 3]: 14100 nM

Structure (SMILES): Cc1cc(C)cc(C(=O)N(NC(=O)c2ccc(B(O)O)cc2F)C(C)(C)C)c1 [compound 12]
EC50 [1, 3]: 271 nM

Structure (SMILES): [2H]C([2H])([2H])c1cc(C(=O)N(NC(=O)c2ccc(B(O)O)cc2F)[C@H](CC)C(C)(C)C)cc(C([2H])([2H])[2H])c1 [compound 15]
EC50 [1, 3]: 52.3 nM

Structure (SMILES): CC[C@@H](N(NC(=O)c1ccc(B(O)O)cc1Cl)C(=O)c1cc(C)cc(C)c1)C(C)(C)C [compound 20]
EC50 [1, 3]: 183 nM

Structure (SMILES): Cc1cc(C)cc(C(=O)N(NC(=O)c2ccc(B(O)O)cc2Cl)C(C)(C)C)c1 [compound 21]
EC50 [1, 3]: 1630 nM

Structure (SMILES): CCC[C@@H](N(NC(=O)c1ccc(CCCB2OC(C)(C)C(C)(C)O2)c(OC(F)F)c1C)C(=O)c1cc(C)cc(C)c1)C(C)(C)C [compound 30]
EC50 [1, 3]: 50.8 nM

Structure (SMILES): CC[C@@H](N(NC(=O)c1cccc(OC)c1C)C(=O)c1cc(C)cc(B2OC(C)(C)C(C)(C)O2)c1)C(C)(C)C [compound 39]
EC50 [1, 3]: 168 nM

Structure (SMILES): CCc1c(OC)cccc1C(=O)NN(C(=O)c1ccc(B(O)O)cc1)C(C)(C)C [compound 40]
EC50 [1, 3]: 5250 nM

Structure (SMILES): Cc1cc(C)cc(C(=O)N(NC(=O)c2cccc(B3OC(C)(C)C(C)(C)O3)c2C)C(C)(C)C)c1 [compound 43]
EC50 [1, 3]: 1420 nM

Structure (SMILES): CC[C@@H](N(NC(=O)c1ccc2c(c1)B(O)OC2)C(=O)c1cc(C)cc(C)c1)C(C)(C)C [compound 52]
EC50 [1, 3]: 287 nM

Structure (SMILES): CC[C@H](N(NC(=O)c1ccc2c(c1)B(O)OC2)C(=O)c1cc(C)cc(C)c1)C(C)(C)C [compound 53]
EC50 [1, 3]: 1000 nM

Structure (SMILES): [2H]C([2H])([2H])c1cc(C(=O)N(NC(=O)c2ccc3c(c2F)B(O)OC3)[C@H](CC)C(C)(C)C)cc(C([2H])([2H])[2H])c1 [compound 60]
EC50 [1, 3]: 123 nM

Structure (SMILES): Cc1cc(C)cc(C(=O)N(CC(C)(C)C)NC(=O)c2ccc3c(c2C)OCCOB3O)c1 [compound 71]
EC50 [1, 3]: 430 nM

Structure (SMILES): Cc1cc(Cl)cc(C(=O)N(CC(C)(C)C)NC(=O)c2ccc3c(c2C)OCCOB3O)c1 [compound 72]
EC50 [1, 3]: 443 nM

Structure (SMILES): CCC(C)(C)N(NC(=O)c1ccc2c(c1C)OCCOB2O)C(=O)c1cc(C)cc(C)c1 [compound 76]
EC50 [1, 3]: 358 nM

Structure (SMILES): [2H]C([2H])([2H])c1cc(C(=O)N(NC(=O)c2ccc3c(c2C)OCCOB3O)C(C)(C)CC)cc(C([2H])([2H])[2H])c1 [compound 77]
EC50 [1, 3]: 181 nM

Structure (SMILES): CC[C@H](N(NC(=O)c1ccc2c(c1C)OCCOB2O)C(=O)c1cc(C)cc(C)c1)C(C)(C)C [compound 80]
EC50 [1, 3]: 867 nM

Structure (SMILES): [2H]C([2H])([2H])c1cc(C(=O)N(NC(=O)c2ccc3c(c2C)OCCOB3O)[C@@H](CC)C(C)(C)C)cc(C([2H])([2H])[2H])c1 [compound 81]
EC50 [1, 3]: 564 nM

Structure (SMILES): CCOCc1ccc(C(=O)NN(C(=O)c2cc(C)cc(C)c2)[C@H](CC)C(C)(C)C)c(F)c1B(O)O [compound 90, (R)-(3-(2-(3,5-dimethylbenzoyl)-2-(2,2-dimethylpentan-3-yl)hydrazine-1-carbonyl)-6-(ethoxymethyl)-2-fluorophenyl)boronic acid]
EC50 [1, 12]: 389 nM | EC50 [1, 13]: ~266 nM
